The text below walks through data of paper PMC4497792 (RSC advances, 2015).

One series deals with HeLa cells. The following applies: antiproliferative IC50, HeLa and A549 cells.
The test system of series [1] is A549 non-small cell lung carcinoma cells. Description: Intracellular concentration / cell uptake assessment by LC-MS. It is filed as cell-based, human. The note with it: 100 μM, 4 hours, compared to aglycone NHI-2 and to each other.
For series [2], the target named is human lactate dehydrogenase hLDH5 (LDH-A4) (Homo sapiens, UniProt P00338). Description: Enzyme inhibition assay, NADH-competition kinetics on purified hLDH5.
For another series, the system named is GLUT1. The following applies: cited from earlier work; for Km: read-out: Km for GLUT1.

For the compound `COC(=O)c1cc2c(C(F)(F)F)cc(-c3ccccc3)cc2n1O[C@@H]1O[C@H](CO)[C@H](O)[C@@H](O)[C@H]1O` [Compound 3, Methyl 6-phenyl-4-(trifluoromethyl)-1-(((2S,3R,4R,5R,6R)-3,4,5-trihydroxy-6-(hydroxymethyl)tetrahydro-2H-pyran-2-yl)oxy)-1H-indole-2-carboxylate], the “enhanced potency compared to NHI-2” value with HeLa cells is on record as 2–3 fold. Moreover, the “cell uptake (intracellular concentration, in words)” value in series [1] was “slightly lower levels of cell uptake”. For the compound `COC(=O)c1cc2c(C(F)(F)F)cc(-c3ccccc3)cc2n1O[C@@H]1O[C@H](CO)[C@@H](O)[C@H](O)[C@H]1NC(C)=O` [Compound 4, Methyl 1-(((2S,3R,4R,5S,6R)-3-acetamido-4,5-dihydroxy-6-(hydroxymethyl)tetrahydro-2H-pyran-2-yl)oxy)-6-phenyl-4-(trifluoromethyl)-1H-indole-2-carboxylate], the Ki in series [2] was 98.4 ± 15.6 µM.

For the compound `COC(=O)c1cc2c(C(F)(F)F)cc(-c3ccccc3)cc2n1O[C@H]1O[C@H](CO)[C@@H](O)[C@H](O)[C@@H]1O` [Compound 2, Methyl 6-phenyl-4-(trifluoromethyl)-1-(((2R,3S,4S,5S,6R)-3,4,5-trihydroxy-6-(hydroxymethyl)tetrahydro-2H-pyran-2-yl)oxy)-1H-indole-2-carboxylate], the “enhanced potency compared to NHI-2” value in the series on HeLa cells is listed as 3–6 fold. Also, in series [1], the “cell uptake (intracellular concentration, in words)” value is listed as “significantly enhanced cell uptake”. Take `OC[C@H]1OC(O)[C@@H](O)[C@@H](O)[C@@H]1O` (stereo partly drawn) [Mannose, D-mannose]: in the series on GLUT1, the “reduction of affinity for GLUT1 compared to glucose” value is given as 13 fold and the Km is 20 mM. With `OC[C@H]1OC(O)[C@H](O)[C@@H](O)[C@@H]1O` (some centres unmarked) [glucose], the Km in the series with GLUT1 was 1.5 mM.

Broadly, the Ki is the equilibrium dissociation constant of an inhibitor or competing ligand from its target. Read a low Ki as higher affinity. One may read the Km as the substrate concentration at which the rate is half of its maximum.
